Measurements reported in patent US4409388A, “1,2,4-Triazole derivatives, and their use as antifertility agents” (Gruppo Lepetit S.p.A., priority 1978, dated 1983).

Legend:
[1] = test system: female Syrian golden hamsters; experiment: post-coital/post-implantation antifertility activity, subcutaneous, pregnant hamsters; assay type: in vivo; conditions: days 4-8 of pregnancy; for activity according to the criteria (reduction of live fetuses in at least 60% of the treated animals): 10 mg/kg s.c. daily for 5 days, hamsters; for ED50: Mesocricetus auratus, sc, 120 h, s.c. hamsters, daily for 5 days, sesame oil, read-out: ED50 (100% activity, absence of live fetuses, in 50% of the animals)
Method: (§1) Representative experiments for assessing antifertility activity were carried out with female Syrian golden hamsters weighing 100 to 130 g. The animals were mated and the presence of sperm in the vagina was taken as evidence of mating. The day sperm was detected and considered day one of pregnancy, since in our laboratories and those of other investigators 90 to 100% of animals that mate as evidenced by vaginal sperm are pregnant.
(§2) Pregnancy was later confirmed at the time of autopsy by presence of fetuses or implantation sites in the uterus.
(§3) Even if an animal aborts the fetus, implantation scars still remain as evidence that the animal has been pregnant.
The animals were autopsied on day 14 of pregnancy and the uteri were examined for evidence of pregnancy (implantation sites, fetal resorptions or live fetuses), hemorrage, and evidence of abnormalities of the uterus, placenta or fetuses.

hamsters = experiment: antifertility activity, oral route, pregnant hamsters; assay type: in vivo, Syrian golden hamsters; conditions: for reduction of live fetuses: oral dosage of 20 mg/Kg, hamsters
Method: as §1, §2, §3
The animals were autopsied on day 14 of pregnancy and the uteri were examined for evidence of pregnancy (implantation sites, fetal resorptions or live fetuses), hemorrage, and evidence of abnormalities of the uterus, placenta or fetuses. A compound was considered to be active if there was a reduction of live fetuses in at least 60% of the treated animals and the presence of implantation sites proves the animal to have been pregnant. […] The compounds were then studied for dose-activity relationships and the corresponding ED50 values i.e., 100% activity (absence of live fetuses) in 50% of the animals, were also determined. The following table reports the ED50 values of some representative compounds of the invention:
Favorable results were also obtained by administering the compounds of the invention by oral route. The experiments for assessing this property were carried out on hamsters following the same procedure as above, with the obvious exception that the compounds were administered orally instead of subcutaneously.

SMILES	activity according to the criteria (reduction of live fetuses in at least 60% of the treated animals) [1]	ED50 [1]	ED50 (hamsters; Mesocricetus auratus, po, 120 h, p.o. hamsters, daily for 5 days, days 4-8 of pregnancy)	reduction of live fetuses (hamsters)
COc1cccc(-c2n[nH]c(-c3ccccc3CO)n2)c1 [Example 1, 5-(2-hydroxymethylphenyl)-3-(3-methoxyphenyl)-1H-1,2,4-triazole]	active	0.08 mg/kg	10 mg/kg	about 60%
COc1cccc(-c2nc(-c3ccccc3C=O)n[nH]2)c1 [Example 3, 2-[5-(3-methoxyphenyl)-1H-1,2,4-triazol-3-yl]benzaldehyde]	active	0.1 mg/kg	–	about 60%
